The values below come from ChEMBL document CHEMBL4422631, “Investigation of stereoisomeric bisarylethenesulfonic acid esters for discovering potent and selective PTP1B inhibitors” (Eur J Med Chem, 2019).

By IC50 is commonly meant the concentration that inhibits the measured activity by half. By Papp is commonly meant the rate of passage across a membrane or cell layer, normalised by area and donor concentration.

Data set [1] has as its target T1, Tyrosine-protein phosphatase non-receptor type 1 (Homo sapiens, UniProt P18031).
T1 sequence (P18031 whole entry): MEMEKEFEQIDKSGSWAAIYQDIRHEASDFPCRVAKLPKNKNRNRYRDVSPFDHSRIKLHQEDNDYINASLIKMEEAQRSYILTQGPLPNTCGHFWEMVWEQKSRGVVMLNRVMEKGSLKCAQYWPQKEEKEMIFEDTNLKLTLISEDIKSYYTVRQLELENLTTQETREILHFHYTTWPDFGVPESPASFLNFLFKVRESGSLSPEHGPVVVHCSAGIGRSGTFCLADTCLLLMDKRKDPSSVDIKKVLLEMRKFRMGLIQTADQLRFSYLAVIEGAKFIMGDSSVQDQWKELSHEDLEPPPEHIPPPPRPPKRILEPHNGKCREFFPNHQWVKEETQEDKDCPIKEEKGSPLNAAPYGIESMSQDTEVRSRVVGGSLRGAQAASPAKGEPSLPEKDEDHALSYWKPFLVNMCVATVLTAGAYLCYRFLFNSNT
The experiment in a line: Inhibition of PTP1B (unknown origin) using pNPP as substrate after 30 mins.

In data set [2] the target is T2, Tyrosine-protein phosphatase non-receptor type 1 (Homo sapiens) (UniProt P18031).
T2 sequence (whole entry): T1 sequence (P18031 whole entry)
The experiment in a line: Inhibition of PTP1B in human HepG2 cells assessed as increase in insulin stimulated glucose uptake at 5 uM preincubated for 24 hrs followed by insulin addition and measured after 10 mins by 2-NBDG dye-based FACS analysis relative to control. The format is cell-based. Further details: scale not given: the % may be the effect or the level left. (Flow cytometry measures light scatter and fluorescence of single cells or particles in a stream.)

Data set [3] concerns the target T2, Tyrosine-protein phosphatase non-receptor type 1 (Homo sapiens). The experiment in a line: Inhibition of PTP1B in human HepG2 cells assessed as increase in insulin stimulated glucose uptake at 10 uM preincubated for 24 hrs followed by insulin addition and measured after 10 mins by 2-NBDG dye-based FACS analysis relative to control. The format is cell-based. Further details: scale not given: the % may be the effect or the level left.

The target is the same in data set [4]. The experiment in a line: Inhibition of PTP1B in human HepG2 cells assessed as increase in insulin stimulated glucose uptake at 20 uM preincubated for 24 hrs followed by insulin addition and measured after 10 mins by 2-NBDG dye-based FACS analysis relative to control. The format is cell-based. Also noted: scale not given: the % may be the effect or the level left.

Data set [5] is described as follows: Apparent permeability of compound at 10 uM at pH 7.4 after 12 hrs by PAMPA. The format is ADME. A general note: The PAMPA barrier holds no transporters, so it reflects passive diffusion.
In data set [6] the target is T3, Tyrosine-protein phosphatase non-receptor type 11 (Homo sapiens, UniProt Q06124).
T3 sequence (Q06124 whole entry): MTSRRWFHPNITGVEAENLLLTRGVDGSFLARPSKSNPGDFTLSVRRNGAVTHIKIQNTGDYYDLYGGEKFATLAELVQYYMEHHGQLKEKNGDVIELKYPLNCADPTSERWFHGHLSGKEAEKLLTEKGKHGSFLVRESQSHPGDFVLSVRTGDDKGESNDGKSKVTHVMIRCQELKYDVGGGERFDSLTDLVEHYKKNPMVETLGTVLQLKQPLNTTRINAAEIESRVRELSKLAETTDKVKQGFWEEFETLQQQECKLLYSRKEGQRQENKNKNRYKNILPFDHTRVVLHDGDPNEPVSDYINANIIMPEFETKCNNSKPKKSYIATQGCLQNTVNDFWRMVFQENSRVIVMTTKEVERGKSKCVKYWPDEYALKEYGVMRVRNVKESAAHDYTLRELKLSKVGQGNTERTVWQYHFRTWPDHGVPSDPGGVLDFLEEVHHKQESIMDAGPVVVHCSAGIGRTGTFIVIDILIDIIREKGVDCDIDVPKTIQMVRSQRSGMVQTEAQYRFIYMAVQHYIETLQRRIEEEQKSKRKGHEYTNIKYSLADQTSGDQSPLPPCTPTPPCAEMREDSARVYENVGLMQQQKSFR
The experiment in a line: Inhibition of SHP2 (unknown origin) using pNPP as substrate after 30 mins.

Data set [7] addresses T4, Tyrosine-protein phosphatase non-receptor type 2 (Homo sapiens, UniProt P17706).
T4 sequence (P17706 whole entry): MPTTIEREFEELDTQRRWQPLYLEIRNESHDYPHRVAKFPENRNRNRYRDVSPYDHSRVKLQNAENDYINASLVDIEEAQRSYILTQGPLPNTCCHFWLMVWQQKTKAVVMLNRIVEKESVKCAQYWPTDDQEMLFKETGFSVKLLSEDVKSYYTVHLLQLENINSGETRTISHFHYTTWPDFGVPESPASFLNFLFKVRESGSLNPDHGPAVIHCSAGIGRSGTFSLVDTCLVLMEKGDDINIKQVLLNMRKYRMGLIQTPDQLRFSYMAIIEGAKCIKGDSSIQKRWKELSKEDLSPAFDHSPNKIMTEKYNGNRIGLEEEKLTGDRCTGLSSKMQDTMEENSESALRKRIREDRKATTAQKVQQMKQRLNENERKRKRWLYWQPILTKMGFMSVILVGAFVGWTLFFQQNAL
The experiment in a line: Inhibition of TCPTP (unknown origin) using pNPP as substrate after 30 mins.

Take `CCOS(=O)(=O)/C=C/c1ccc(O[C@@H]2CN(C(=O)c3ccccc3)C[C@H]2Oc2ccc(/C=C/S(=O)(=O)OCC)cc2)cc1`: the IC50 in data set [1] is 7810 nM.

For `CCOS(=O)(=O)/C=C/c1ccc(O[C@@H]2CN(C(=O)C(=O)Nc3ccc(Oc4ccc(Cl)cc4)cc3)C[C@H]2Oc2ccc(CCS(=O)(=O)OCC)cc2)cc1`, in data set [1], the IC50 turned out to be 380 nM.

With `CCOS(=O)(=O)/C=C/c1ccc(O[C@@H]2CN(C(=O)C(=O)Nc3ccc(Oc4ccc(C(C)C)cc4)cc3)C[C@@H]2Oc2ccc(CCS(=O)(=O)OCC)cc2)cc1`, inhibition in data set [1] was half-maximal at 1390 nM (IC50).

Regarding `CCOS(=O)(=O)/C=C/c1ccc(O[C@@H]2CN(C(=O)Nc3ccc(Oc4ccc(C(C)C)cc4)cc3)C[C@H]2Oc2ccc(/C=C/S(=O)(=O)OCC)cc2)cc1`, the IC50 in data set [1] was 1370 nM.

In turn, `CCOS(=O)(=O)/C=C/c1ccc(O[C@@H]2CN(Cc3ccccc3)C[C@H]2Oc2ccc(/C=C/S(=O)(=O)OCC)cc2)cc1` gave an IC50 in data set [1] of 9340 nM.

For the compound `CCOS(=O)(=O)/C=C/c1ccc(O[C@@H]2CN(C(=O)C(=O)Nc3ccc(Oc4ccc(C(C)C)cc4)cc3)C[C@H]2Oc2ccc(/C=C/S(=O)(=O)OCC)cc2)cc1`, in data set [1], the half-maximal inhibitory concentration (IC50) came out at 420 nM.

Regarding `CCOS(=O)(=O)/C=C/c1ccc(O[C@@H]2CN(C(=O)C(=O)Nc3ccc(Oc4ccc(F)cc4)cc3)C[C@@H]2Oc2ccc(CCS(=O)(=O)OCC)cc2)cc1`, the half-maximal inhibitory concentration (IC50) in data set [1] was 1220 nM.

In the case of `CCOS(=O)(=O)/C=C/c1ccc(O[C@@H]2CN(Cc3ccc(Oc4ccc(C(C)C)cc4)cc3)C[C@H]2Oc2ccc(/C=C/S(=O)(=O)OCC)cc2)cc1`, in data set [1], the IC50 is 6870 nM.

Turning to `CCc1ccc(CCOc2ccc(CC3SC(=O)NC3=O)cc2)nc1` (stereo unspecified), the Activity in data set [2] is 51.1%; in data set [3] it was 70.2%; in data set [4], 78.9%.

Consider `CCOS(=O)(=O)/C=C/c1ccc(O[C@@H]2CN(C(=O)C(=O)Nc3ccc(Oc4ccc(C(C)(C)C)cc4)cc3)C[C@@H]2Oc2ccc(CCS(=O)(=O)OCC)cc2)cc1`, for which inhibition in data set [1] was half-maximal at 1170 nM (IC50).

The compound `CCOS(=O)(=O)/C=C/c1ccc(O[C@@H]2CN(C(=O)C(=O)Nc3ccc(Oc4ccc(C(C)(C)C)cc4)cc3)C[C@H]2Oc2ccc(CCS(=O)(=O)OCC)cc2)cc1` yielded an IC50 in data set [1] of 430 nM.

In data set [1], `CCOS(=O)(=O)/C=C/c1ccc(O[C@@H]2CN(C(=O)C(=O)Nc3ccc(Oc4ccc(Br)cc4)cc3)C[C@@H]2Oc2ccc(CCS(=O)(=O)OCC)cc2)cc1` registered an IC50 of 1510 nM.

Regarding `CCOS(=O)(=O)/C=C/c1ccc(O[C@@H]2CNC[C@H]2Oc2ccc(/C=C/S(=O)(=O)OCC)cc2)cc1`, in data set [5], the Papp at 12 h, 10 µM came to 0.93 ×10⁻⁶ cm/s. Further, the IC50 amounted to 23500 nM in data set [6], 16800 nM in data set [1] and 29600 nM in data set [7].

In data set [1], `CCOS(=O)(=O)/C=C/c1ccc(O[C@@H]2CN(C(=O)C(=O)Nc3ccc(Oc4ccc5ccccc5c4)cc3)C[C@@H]2Oc2ccc(CCS(=O)(=O)OCC)cc2)cc1` gave an IC50 of 1260 nM.

Compound `CCOS(=O)(=O)/C=C/c1ccc(O[C@@H]2CN(C(=O)C(=O)Nc3ccc(Oc4ccccc4)cc3)C[C@@H]2Oc2ccc(CCS(=O)(=O)OCC)cc2)cc1` yielded an IC50 in data set [1] of 2790 nM.

In turn, `CCOS(=O)(=O)/C=C/c1ccc(O[C@@H]2CN(C(=O)C(=O)Nc3ccc(Oc4ccc5ccccc5c4)cc3)C[C@H]2Oc2ccc(CCS(=O)(=O)OCC)cc2)cc1` returned a concentration for half-maximal inhibition (IC50) in data set [1] of 360 nM.

Regarding `CCOS(=O)(=O)/C=C/c1ccc(O[C@@H]2CN(C(=O)Nc3ccc(Oc4ccccc4)cc3)C[C@H]2Oc2ccc(/C=C/S(=O)(=O)OCC)cc2)cc1`, the IC50 in data set [1] is 1930 nM.

In data set [1], `CCCCCCc1ccc(NC(=O)C(=O)N2C[C@H](Oc3ccc(CCS(=O)(=O)OCC)cc3)[C@H](Oc3ccc(/C=C/S(=O)(=O)OCC)cc3)C2)cc1` returned an IC50 of 1540 nM.

In data set [1], `CCOS(=O)(=O)/C=C/c1ccc(O[C@@H]2CN(C(=O)c3ccc(Oc4ccccc4)cc3)C[C@H]2Oc2ccc(/C=C/S(=O)(=O)OCC)cc2)cc1` registered an IC50 of 2950 nM.

In data set [1], `CCOS(=O)(=O)/C=C/c1ccc(O[C@@H]2CN(Cc3ccc(Oc4ccccc4)cc3)C[C@H]2Oc2ccc(/C=C/S(=O)(=O)OCC)cc2)cc1` showed an IC50 of 7420 nM.

`CCOS(=O)(=O)/C=C/c1ccc(O[C@@H]2CN(C(=O)Nc3ccccc3)C[C@H]2Oc2ccc(/C=C/S(=O)(=O)OCC)cc2)cc1` had a 50% inhibitory concentration (IC50) in data set [1] of 3510 nM.

`CCOS(=O)(=O)/C=C/c1ccc(O[C@@H]2CN(C(=O)C(=O)Nc3ccc(Oc4ccc(Cl)cc4)cc3)C[C@@H]2Oc2ccc(CCS(=O)(=O)OCC)cc2)cc1`: inhibition in data set [1] was half-maximal at 1450 nM (IC50).

On to `CC(C)NCC(O)COc1cccc2ccccc12` (stereo unspecified) [PROPRANOLOL], for which the Papp at 12 h, 10 µM in data set [5] came out at 8.71 ×10⁻⁶ cm/s.

Regarding `CCOS(=O)(=O)/C=C/c1ccc(O[C@@H]2CN(C(=O)c3ccc(Oc4ccc(C(C)C)cc4)cc3)C[C@H]2Oc2ccc(/C=C/S(=O)(=O)OCC)cc2)cc1`, in data set [1], the midpoint of inhibition, the IC50, lay at 3360 nM.

For the compound `CCOS(=O)(=O)/C=C/c1ccc(O[C@@H]2CN(C(=O)C(=O)Nc3ccc(Oc4ccc(F)cc4)cc3)C[C@H]2Oc2ccc(CCS(=O)(=O)OCC)cc2)cc1`, the IC50 in data set [1] was found to be 460 nM.

As to `CCOS(=O)(=O)/C=C/c1ccc(O[C@H]2CNC[C@H]2Oc2ccc(/C=C/S(=O)(=O)OCC)cc2)cc1`, the apparent permeability coefficient (Papp) at 12 h, 10 µM in data set [5] was 0.87 ×10⁻⁶ cm/s. The IC50 in data set [6] stood at 55200 nM; in data set [1], 27400 nM; in data set [7], 47800 nM.

As to `CCOS(=O)(=O)/C=C/c1ccc(O[C@@H]2CN(C(=O)C(=O)Nc3ccccc3)C[C@H]2Oc2ccc(/C=C/S(=O)(=O)OCC)cc2)cc1`, the Papp at 12 h, 10 µM in data set [5] was found to be 1.27 ×10⁻⁶ cm/s. Further, the IC50 in data set [6] came out at 5650 nM; in data set [1], 2520 nM; in data set [7], 7840 nM.

The compound `CCOS(=O)(=O)/C=C/c1ccc(O[C@@H]2CN(C(=O)C(=O)Nc3ccc(Oc4ccc(Br)cc4)cc3)C[C@H]2Oc2ccc(CCS(=O)(=O)OCC)cc2)cc1` registered a 50% inhibitory concentration (IC50) in data set [1] of 440 nM.

For `CCCCCCc1ccc(NC(=O)C(=O)N2C[C@@H](Oc3ccc(/C=C/S(=O)(=O)OCC)cc3)[C@H](Oc3ccc(CCS(=O)(=O)OCC)cc3)C2)cc1`, the IC50 in data set [1] was 610 nM.

`CCOS(=O)(=O)/C=C/c1ccc(O[C@@H]2CN(C(=O)C(=O)Nc3ccc(Oc4ccccc4)cc3)C[C@H]2Oc2ccc(/C=C/S(=O)(=O)OCC)cc2)cc1` gave a concentration for half-maximal inhibition (IC50) in data set [1] of 1070 nM.
